In article PMC3353862:
Converted amounts (≈) assume the structure as drawn.

Experiments:
[1] = test system: bacterial protein synthesis (aminoacylation/translation system); experiment: aminoacylation/translation (A/T) assay; type: biochemical; settings: for IC50: A/T assay, Table 1, read-out: IC50
E. faecalis = experiment: Broth microdilution MIC testing; type: cell-based, Enterococcus faecalis; settings: for MIC E. fae: E. faecalis; for MIC: Enterococcus faecalis, read-out: MIC E. fae
M. catarrhalis = experiment: Broth microdilution MIC testing; type: cell-based, Moraxella catarrhalis; settings: for MIC: Moraxella catarrhalis
H. influenzae = experiment: Broth microdilution MIC testing; type: cell-based, Haemophilus influenzae; settings: for MIC H. flu: H. influenzae; for MIC: Haemophilus influenzae, read-out: MIC H. flu
S. pneumoniae = experiment: Broth microdilution MIC testing; type: cell-based, Streptococcus pneumoniae; settings: for MIC S. pneumo: S. pneumoniae; for MIC: Streptococcus pneumoniae, read-out: MIC S. pneumo
S. aureus = experiment: Broth microdilution MIC testing; type: cell-based, Staphylococcus aureus; settings: for MIC: Staphylococcus aureus, read-out: MIC S. aureus
E. coli tolC mutants = experiment: Broth microdilution MIC testing; type: cell-based, Escherichia coli; settings: for MIC E. coli tolC: E. coli tolC mutants; for MIC: Escherichia coli, read-out: MIC E. coli tolC
[2] = test system: E. coli modified with PMBN; experiment: Broth microdilution MIC testing; type: cell-based, Escherichia coli; settings: for MIC E. coli +PMBP: E. coli modified with PMBN; for MIC: Escherichia coli, read-out: MIC E. coli +PMBP

SMILES | IC50 [1] [µM] | MIC E. fae (E. faecalis) [µg/mL] | MIC M. cat (M. catarrhalis) [µg/mL] | MIC H. flu (H. influenzae) [µg/mL] | MIC S. pneumo (S. pneumoniae) [µg/mL] | MIC S. aureus (S. aureus) [µg/mL] | MIC E. coli tolC (E. coli tolC mutants) [µg/mL] | MIC E. coli +PMBP [2] [µg/mL] | fold reduction of potency/biochemical activity in the A/T assay ([1]; relative to 321521) | MIC (E. faecalis) [µg/mL] | MIC (M. catarrhalis) [µg/mL] | MIC (H. influenzae) [µg/mL] | MIC (S. pneumoniae) [µg/mL] | MIC (S. aureus) [µg/mL] | MIC (E. coli tolC mutants) [µg/mL] | MIC [2] [µg/mL] | biochemical activity in the A/T assay [1]
O=C(COc1ccc(CN2CCc3nc(-c4ccccn4)[nH]c(=O)c3C2)cc1)N1CCCC1 [Compound 323210] | 3.2 | > 128 | > 128 | > 128 | > 128 | > 128 | > 128 | > 128 |  |  |  |  |  |  |  |  | 
O=c1[nH]c(-c2cccs2)nc2c1CN(Cc1ccc(Cl)cc1)CC2 [Compound 332057] | 101 |  |  |  |  |  |  |  | over 40 fold | > 128 | > 128 | > 128 | > 128 | > 128 | > 128 | > 128 | 
O=C1CCCN1c1ccc(CN2CCc3nc(-c4ccccn4)[nH]c(=O)c3C2)cc1 [Compound 323211] | 1.6 | > 128 | 64 (≈ 159 µM) | > 128 | > 128 | > 128 | > 128 | > 128 |  |  |  |  |  |  |  |  | 
Oc1ccccc1CN1CCc2nc(-c3ccccn3)nc(O)c2C1 [Compound 321522] | 2.6 |  |  |  |  |  |  |  |  | 16 (≈ 47.8 µM) | 1 (≈ 2.99 µM) | 2 (≈ 5.98 µM) | 16 (≈ 47.8 µM) | 128 (≈ 383 µM) | 32 (≈ 95.7 µM) | 64 (≈ 191 µM) | 
Clc1ccc(CN2CCc3nc(-c4ccccn4)ncc3C2)cc1 [Compound 323355] | 32.1 |  |  |  |  |  |  |  |  | > 128 | 4 (≈ 11.9 µM) | 64 (≈ 190 µM) | 64 (≈ 190 µM) | 128 (≈ 380 µM) | 64 (≈ 190 µM) | 64 (≈ 190 µM) | 
COc1cccc(CN2CCc3nc(-c4ccncc4)nc(O)c3C2)c1 [Compound 321388] | > 300 |  |  |  |  |  |  |  |  | > 128 | > 128 | > 128 | > 128 | > 128 | > 128 | > 128 | 
CC(=O)Nc1ccc(CN2CCc3nc(-c4ccccn4)[nH]c(=O)c3C2)cc1 [Compound 323222] | > 300 | > 128 | > 128 | > 128 | > 128 | > 128 | > 128 | > 128 |  |  |  |  |  |  |  |  | 
O=c1[nH]c(-c2ccccn2)nc2c1CN(Cc1cccc(F)c1F)CC2 [Compound 323237] | 2.8 | 64 (≈ 181 µM) | 0.5 (≈ 1.41 µM) | 4 (≈ 11.3 µM) | 8 (≈ 22.6 µM) | 32 (≈ 90.3 µM) | 8 (≈ 22.6 µM) | 16 (≈ 45.2 µM) |  |  |  |  |  |  |  |  | 
COc1ccc(OC)c(CN2CCc3nc(-c4ccccn4)[nH]c(=O)c3C2)c1 [Compound 323191] | > 300 | 128 (≈ 338 µM) | 4 (≈ 10.6 µM) | 32 (≈ 84.6 µM) | 32 (≈ 84.6 µM) | > 128 | 128 (≈ 338 µM) | 64 (≈ 169 µM) |  |  |  |  |  |  |  |  | 
CN(CCO)c1ccc(CN2CCc3nc(-c4ccccn4)[nH]c(=O)c3C2)cc1 [Compound 323232] | 3.2 | > 128 | 8 (≈ 20.4 µM) | > 128 | > 128 | > 128 | 128 (≈ 327 µM) | > 128 |  |  |  |  |  |  |  |  | 
O=c1[nH]c(-c2ccccn2)nc2c1CN(Cc1cccc(Cl)c1)CC2 [Compound 323220] | 2.1 | 32 (≈ 90.7 µM) | ≤0.12 | 2 (≈ 5.67 µM) | 4 (≈ 11.3 µM) | 16 (≈ 45.3 µM) | 8 (≈ 22.7 µM) | 8 (≈ 22.7 µM) |  |  |  |  |  |  |  |  | 
Cc1cccc(-c2nc3c(c(=O)[nH]2)CN(Cc2ccc(Cl)cc2)CC3)n1 [Compound 332052] | > 300 |  |  |  |  |  |  |  |  | > 128 | 32 (≈ 87.2 µM) | > 64 | > 128 | > 128 | > 128 | > 128 | completely abolished activity
Oc1nc(-c2ccccn2)nc2c1CN(Cc1ccccc1)CC2 [Compound 321524] | 2 |  |  |  |  |  |  |  |  | 16 (≈ 50.3 µM) | 1 (≈ 3.14 µM) | 4 (≈ 12.6 µM) | 16 (≈ 50.3 µM) | 128 (≈ 402 µM) | 16 (≈ 50.3 µM) | 64 (≈ 201 µM) | 
